What was measured:
[1] = test system: uric acid, a biomarker of BCRP activity; assay: UCSF EHR analysis: serum/plasma uric acid, on vs off drug; type: in vivo, human
human MATE2 = human MATE2 (Homo sapiens, UniProt Q86VL8)
[2] = test system: triglycerides, LDL cholesterol, and total cholesterol, biomarkers of OCT1 activity; assay: UCSF EHR analysis: lipid levels in patients with HIV, on vs off drug; type: in vivo, human
human OCT2 = target: T1, human OCT2 (Homo sapiens, UniProt O15244)
T1 sequence (O15244 1-555): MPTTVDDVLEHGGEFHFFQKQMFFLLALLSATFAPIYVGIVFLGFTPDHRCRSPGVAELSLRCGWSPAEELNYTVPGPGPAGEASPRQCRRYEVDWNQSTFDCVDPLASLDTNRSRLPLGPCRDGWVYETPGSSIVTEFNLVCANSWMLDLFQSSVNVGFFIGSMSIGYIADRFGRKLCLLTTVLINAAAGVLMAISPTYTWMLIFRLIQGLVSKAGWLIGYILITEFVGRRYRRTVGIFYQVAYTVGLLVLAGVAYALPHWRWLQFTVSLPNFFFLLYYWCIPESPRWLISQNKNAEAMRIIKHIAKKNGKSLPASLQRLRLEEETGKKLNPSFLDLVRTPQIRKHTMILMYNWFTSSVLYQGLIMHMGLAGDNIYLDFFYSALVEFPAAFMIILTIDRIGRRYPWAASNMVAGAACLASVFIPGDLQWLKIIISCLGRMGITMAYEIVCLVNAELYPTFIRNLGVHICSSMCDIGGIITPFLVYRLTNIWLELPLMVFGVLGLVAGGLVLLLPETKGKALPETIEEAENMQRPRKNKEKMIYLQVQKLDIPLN

human OATP1B3 = target: T2, human OATP1B3 (Homo sapiens, UniProt Q9NPD5)
T2 sequence (Q9NPD5 1-702): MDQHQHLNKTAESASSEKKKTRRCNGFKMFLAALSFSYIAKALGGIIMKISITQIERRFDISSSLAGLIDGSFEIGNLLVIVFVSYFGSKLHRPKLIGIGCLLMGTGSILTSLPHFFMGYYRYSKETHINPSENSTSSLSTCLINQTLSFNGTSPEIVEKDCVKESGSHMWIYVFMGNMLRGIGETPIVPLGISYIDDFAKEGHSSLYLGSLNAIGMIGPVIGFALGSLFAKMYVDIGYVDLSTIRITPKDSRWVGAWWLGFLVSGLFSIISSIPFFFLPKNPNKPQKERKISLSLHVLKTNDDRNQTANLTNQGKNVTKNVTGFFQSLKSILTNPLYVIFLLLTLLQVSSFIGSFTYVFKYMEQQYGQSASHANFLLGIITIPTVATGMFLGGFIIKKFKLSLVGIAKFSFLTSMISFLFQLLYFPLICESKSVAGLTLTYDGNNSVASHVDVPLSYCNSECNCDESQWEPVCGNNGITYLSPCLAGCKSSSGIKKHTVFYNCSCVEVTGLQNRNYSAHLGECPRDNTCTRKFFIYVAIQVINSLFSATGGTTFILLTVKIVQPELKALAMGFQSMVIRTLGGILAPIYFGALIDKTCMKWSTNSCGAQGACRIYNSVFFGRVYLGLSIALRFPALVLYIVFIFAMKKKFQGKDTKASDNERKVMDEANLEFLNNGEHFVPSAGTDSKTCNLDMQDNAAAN

human OCT1 = target: T3, human OCT1 (Homo sapiens, UniProt O15245); conditions: for Iu,in,max/IC50 OCT1: human
T3 sequence (O15245 1-554): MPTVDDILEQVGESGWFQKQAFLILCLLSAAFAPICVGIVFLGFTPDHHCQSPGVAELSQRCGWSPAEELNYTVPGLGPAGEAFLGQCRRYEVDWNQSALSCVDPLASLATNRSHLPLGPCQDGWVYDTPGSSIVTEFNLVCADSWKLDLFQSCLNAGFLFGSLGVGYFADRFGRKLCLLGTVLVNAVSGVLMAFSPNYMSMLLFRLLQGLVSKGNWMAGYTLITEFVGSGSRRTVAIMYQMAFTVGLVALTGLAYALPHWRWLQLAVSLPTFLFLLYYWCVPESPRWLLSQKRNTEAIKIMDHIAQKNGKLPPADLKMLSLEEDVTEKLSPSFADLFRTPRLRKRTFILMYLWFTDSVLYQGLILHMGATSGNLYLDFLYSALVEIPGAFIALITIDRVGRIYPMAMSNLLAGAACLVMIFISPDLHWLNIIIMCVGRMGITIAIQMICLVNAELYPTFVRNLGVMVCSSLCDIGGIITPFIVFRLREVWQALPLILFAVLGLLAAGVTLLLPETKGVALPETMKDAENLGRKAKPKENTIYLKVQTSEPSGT

Sequence of human MATE2 (Q86VL8 1-566 isoform Q86VL8-3): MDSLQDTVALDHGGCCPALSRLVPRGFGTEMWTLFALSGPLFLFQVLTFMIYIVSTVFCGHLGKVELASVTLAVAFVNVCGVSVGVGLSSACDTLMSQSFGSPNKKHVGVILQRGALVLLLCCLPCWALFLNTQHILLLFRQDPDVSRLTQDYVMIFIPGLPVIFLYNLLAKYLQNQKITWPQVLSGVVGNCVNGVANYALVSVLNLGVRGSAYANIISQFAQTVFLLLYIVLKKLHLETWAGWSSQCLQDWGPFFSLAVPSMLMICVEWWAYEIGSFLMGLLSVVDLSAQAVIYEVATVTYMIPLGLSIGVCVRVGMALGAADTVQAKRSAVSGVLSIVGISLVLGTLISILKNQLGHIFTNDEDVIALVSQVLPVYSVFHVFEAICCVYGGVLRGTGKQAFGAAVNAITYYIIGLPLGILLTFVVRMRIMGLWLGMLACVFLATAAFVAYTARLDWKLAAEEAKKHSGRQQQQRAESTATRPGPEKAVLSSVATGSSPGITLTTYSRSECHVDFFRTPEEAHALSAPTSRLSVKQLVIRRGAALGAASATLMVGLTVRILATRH

Question: Which “Median SUA On drug” value ([1]; criteria 1, off drug 5.7) does the source give for `CCCc1nn(C)c2c(=O)[nH]c(-c3cc(S(=O)(=O)N4CCN(C)CC4)ccc3OCC)nc12` [Sildenafil] here?
Answer: 6.7/5.7 mg/dL

Question: What about the “Median SUA On drug” value ([1]; criteria 2, off drug 5.6) of the same molecule?
Answer: 6.9/5.6 mg/dL

Question: And the “Median SUA On drug” value ([1]; main analysis, matched 1:5, off drug 5.7, P <2.2E-16)?
Answer: 6.6/5.7 mg/dL

Question: And the “Cu,max/IC50 MATE2-K” value (human MATE2)?
Answer: 0.003

Question: Which results are given for `CC(C)CN(C[C@@H](O)[C@H](Cc1ccccc1)NC(=O)O[C@H]1CO[C@H]2OCC[C@H]21)S(=O)(=O)c1ccc(N)cc1` [Darunavir]?
Answer: LDL cholesterol, Median On drug ([2]; matched 1:2, off drug 95): 100/95 mg/dL; Total cholesterol, Median On drug ([2]; matched 1:2, off drug 166): 180/166 mg/dL; LDL cholesterol, Average On drug ([2]; matched 1:2, on n=357, off n=714, off drug 98.7, P 0.0077): 105/98.7 mg/dL; Total cholesterol, Average On drug ([2]; matched 1:2, on n=364, off n=728, off drug 170, P 5.18E-06): 183/170 mg/dL; Triglyceride, Average On drug ([2]; matched 1:2, on n=386, off n=772, off drug 160, P 0.00022): 180/160 mg/dL

Question: Which results are given for `N#CC[C@H](C1CCCC1)n1cc(-c2ncnc3[nH]ccc23)cn1` [Ruxolitinib]?
Answer: Cu,max/IC50 OCT2 (human OCT2): 0.003; Iu,in,max/IC50 OATP1B3 (human OATP1B3): 0.008; Iu,in,max/IC50 OCT1 (human OCT1): 0.02

Question: For `CCOC(=O)c1c(CSc2ccccc2)n(C)c2cc(Br)c(O)c(CN(C)C)c12` [Umifenovir (Arbidol), Umifenovir], which “Cu,max/IC50 OCT2” value (human OCT2) is on record?
Answer: 0.006

Question: What about the “Iu,in,max/IC50 OATP1B3” value (human OATP1B3) of the same molecule?
Answer: 0.73

Question: What about the “OCT1 inhibited more potently relative to OCT2” value (human OCT1) of the same molecule?
Answer: ≥ 10 fold

Question: And the “Iu,in,max/IC50 OCT1” value (human OCT1)?
Answer: 3.93

Question: And the “Cu,max/IC50 MATE2-K” value (human MATE2)?
Answer: 0.02

From publication PMC8217266 (Clinical Pharmacology and Therapeutics, 2021)
